This passage reports relative viability results from the supplement of paper PMC10307832.

Assay in all cases: relative viability (nuclei count vs DMSO), 5 days (fraction); higher = more cells survive
Compound in test [1]: O=c1[nH]cc(F)c(=O)[nH]1 [5-Fluorouracil] + CS(=O)(=O)N1CCN(Cc2cc3nc(-c4cccc5[nH]ncc45)nc(N4CCOCC4)c3s2)CC1 [Pictilisib] (partner 1 µM)
The essentials: (§1)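 Relative viability divides the nuclei count in treated wells by that in vehicle wells. Lung cancer cell lines were seeded in 1536-well plates, dosed by pin tool the next day, and fixed and stained after 5 days in one step with final 0.05% Triton X-100, 1% formaldehyde and 1 ug/ml Hoechst. Dosing was a single drug or a fixed anchor-drug dose plus five library-drug doses (not always all listed) in √10 steps, and values are medians of duplicate plates imaged at 4×.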

Compound in test [2]: O=c1[nH]cc(F)c(=O)[nH]1 [5-Fluorouracil] + COc1cc2c(Oc3ccc(NC(=O)C4(C(=O)Nc5ccc(F)cc5)CC4)cc3F)ccnc2cc1OCCCN1CCOCC1 [Foretinib] (partner 0.25 µM)
The essentials:
as §1

Compound in the test “Staurosporine + OSI-027”: CN[C@@H]1C[C@H]2O[C@@](C)([C@@H]1OC)n1c3ccccc3c3c4c(c5c6ccccc6n2c5c31)C(=O)NC4 [Staurosporine] + COc1cccc2cc(-c3nc([C@H]4CC[C@H](C(=O)O)CC4)n4ncnc(N)c34)[nH]c12 [OSI-027] (partner 0.5 µM)
The method, boiled down:
as §1

Compound in test [3]: O=c1[nH]cc(F)c(=O)[nH]1 [5-Fluorouracil] + CC(=O)c1c(C)c2cnc(Nc3ccc(N4CCNCC4)cn3)nc2n(C2CCCC2)c1=O [Palbociclib] (partner 0.5 µM)
The method, boiled down:
as §1

In the case of NCI-H1437, the relative viability was found to be 0.183 in test [1] (first compound 0.2 µM); 0.116 in test [1] (first compound 0.6325 µM); 0.1 in test [1] (first compound 2 µM); 0.687 in test [2] (first compound 0.02 µM); 0.359 in test [2] (first compound 0.2 µM); 0.273 in test [2] (first compound 0.6325 µM). Moreover, the relative viability in test [2] (first compound 2 µM) was found to be 0.225; in the test with Staurosporine + OSI-027 (first compound 0.005 µM) it was 0.744; with Staurosporine + OSI-027 (first compound 0.05 µM), 0.587; with Staurosporine + OSI-027 (first compound 0.1581 µM), 0.183; in the test with Staurosporine + OSI-027 (first compound 0.5 µM), 0.181; in test [3] (first compound 0.02 µM), 0.306. Moreover, the relative viability in test [3] (first compound 0.2 µM) was 0.221; in test [3] (first compound 0.6325 µM) it was 0.161; in test [3] (first compound 2 µM) it was 0.225.
NCI-H1650: the relative viability in test [1] (first compound 0.02 µM) came to 0.587; in test [1] (first compound 0.2 µM), 0.537; in test [1] (first compound 0.6325 µM), 0.428; in test [1] (first compound 2 µM), 0.306; in test [2] (first compound 0.02 µM), 0.963; in test [2] (first compound 0.2 µM), 1.09. The relative viability in test [2] (first compound 0.6325 µM) was determined as 0.776; in test [2] (first compound 2 µM), 0.37; with Staurosporine + OSI-027 (first compound 0.005 µM), 0.357; with Staurosporine + OSI-027 (first compound 0.01581 µM), 0.187; in the test with Staurosporine + OSI-027 (first compound 0.05 µM), 0.142; in the test with Staurosporine + OSI-027 (first compound 0.1581 µM), 0.168. Further, the relative viability was 0.275 in test [3] (first compound 0.02 µM), 0.379 in test [3] (first compound 0.2 µM), 0.31 in test [3] (first compound 0.6325 µM) and 0.236 in test [3] (first compound 2 µM).
With NCI-H1651, the relative viability in test [1] (first compound 0.02 µM) was found to be 0.523; in test [1] (first compound 0.2 µM), 0.57; in test [1] (first compound 0.6325 µM), 0.412; in test [1] (first compound 2 µM) it was 0.444; in test [2] (first compound 0.02 µM), 0.797; in test [2] (first compound 0.2 µM), 0.835. Besides, the relative viability in test [2] (first compound 0.6325 µM) is 0.537; in test [2] (first compound 2 µM) it was 0.509; with Staurosporine + OSI-027 (first compound 0.005 µM), 0.523; with Staurosporine + OSI-027 (first compound 0.01581 µM) it was 0.396; in the test with Staurosporine + OSI-027 (first compound 0.05 µM) it was 0.304; in the test with Staurosporine + OSI-027 (first compound 0.1581 µM) it was 0.114. The relative viability with Staurosporine + OSI-027 (first compound 0.5 µM) is 0.129; in test [3] (first compound 0.02 µM) it was 0.512; in test [3] (first compound 0.2 µM), 0.467; in test [3] (first compound 0.6325 µM), 0.283; in test [3] (first compound 2 µM), 0.272.
In the case of NCI-H1666, the relative viability was 0.659 in test [1] (first compound 0.02 µM); 0.293 in test [1] (first compound 0.2 µM); 0.292 in test [1] (first compound 0.6325 µM); 0.285 in test [1] (first compound 2 µM); 0.969 in test [2] (first compound 0.02 µM); 0.672 in test [2] (first compound 0.2 µM). The relative viability in test [2] (first compound 0.6325 µM) is 0.466; in test [2] (first compound 2 µM), 0.405; in the test with Staurosporine + OSI-027 (first compound 0.005 µM), 0.658; in the test with Staurosporine + OSI-027 (first compound 0.01581 µM), 0.542; in the test with Staurosporine + OSI-027 (first compound 0.05 µM), 0.548; with Staurosporine + OSI-027 (first compound 0.1581 µM), 0.425. In addition, the relative viability came out at 0.262 with Staurosporine + OSI-027 (first compound 0.5 µM); 0.677 in test [3] (first compound 0.02 µM); 0.642 in test [3] (first compound 0.2 µM); 0.647 in test [3] (first compound 0.6325 µM); 0.609 in test [3] (first compound 2 µM).
Consider NCI-H1734, for which the relative viability turned out to be 0.496 in test [1] (first compound 0.02 µM); 0.49 in test [1] (first compound 0.2 µM); 0.427 in test [1] (first compound 0.6325 µM); 0.303 in test [1] (first compound 2 µM); 0.859 in test [2] (first compound 0.02 µM); 0.881 in test [2] (first compound 0.2 µM). In addition, the relative viability worked out at 0.756 in test [2] (first compound 0.6325 µM); 0.46 in test [2] (first compound 2 µM); 0.456 with Staurosporine + OSI-027 (first compound 0.005 µM); 0.245 in the test with Staurosporine + OSI-027 (first compound 0.01581 µM); 0.209 with Staurosporine + OSI-027 (first compound 0.05 µM); 0.13 in the test with Staurosporine + OSI-027 (first compound 0.1581 µM). For the same cell line, the relative viability is 0.0703 with Staurosporine + OSI-027 (first compound 0.5 µM); 0.349 in test [3] (first compound 0.02 µM); 0.346 in test [3] (first compound 0.2 µM); 0.271 in test [3] (first compound 0.6325 µM); 0.264 in test [3] (first compound 2 µM).
Consider NCI-H1755, for which the relative viability in test [1] (first compound 0.02 µM) turned out to be 0.453; in test [1] (first compound 0.2 µM), 0.5; in test [1] (first compound 0.6325 µM) it was 0.301; in test [1] (first compound 2 µM) it was 0.184; in test [2] (first compound 0.02 µM), 0.909; in test [2] (first compound 0.2 µM), 0.854. Further, the relative viability came out at 0.365 in test [2] (first compound 0.6325 µM); 0.319 in test [2] (first compound 2 µM); 0.344 in the test with Staurosporine + OSI-027 (first compound 0.005 µM); 0.268 with Staurosporine + OSI-027 (first compound 0.01581 µM); 0.209 in the test with Staurosporine + OSI-027 (first compound 0.05 µM); 0.189 with Staurosporine + OSI-027 (first compound 0.1581 µM). Also, the relative viability with Staurosporine + OSI-027 (first compound 0.5 µM) amounted to 0.18; in test [3] (first compound 0.02 µM), 0.448; in test [3] (first compound 0.2 µM) it was 0.501; in test [3] (first compound 0.6325 µM), 0.409; in test [3] (first compound 2 µM), 0.376.
Turning to NCI-H1793, the relative viability in test [1] (first compound 0.02 µM) was 0.37; in test [1] (first compound 0.2 µM), 0.376; in test [1] (first compound 0.6325 µM) it was 0.303; in test [1] (first compound 2 µM) it was 0.247; in test [2] (first compound 0.02 µM), 0.683; in test [2] (first compound 0.2 µM), 0.674. Also, the relative viability in test [2] (first compound 0.6325 µM) was determined as 0.57; in test [2] (first compound 2 µM) it was 0.406; with Staurosporine + OSI-027 (first compound 0.005 µM), 0.378; with Staurosporine + OSI-027 (first compound 0.05 µM), 0.174; in the test with Staurosporine + OSI-027 (first compound 0.1581 µM), 0.0897; with Staurosporine + OSI-027 (first compound 0.5 µM), 0.102. Moreover, the relative viability was determined as 0.285 in test [3] (first compound 0.02 µM), 0.299 in test [3] (first compound 0.2 µM), 0.274 in test [3] (first compound 0.6325 µM) and 0.243 in test [3] (first compound 2 µM).
As for NCI-H1915, the relative viability came out at 0.958 in test [1] (first compound 0.02 µM); 0.908 in test [1] (first compound 0.2 µM); 1.01 in test [1] (first compound 0.6325 µM); 0.773 in test [1] (first compound 2 µM); 1.01 in test [2] (first compound 0.02 µM); 1.09 in test [2] (first compound 0.2 µM). For the same cell line, the relative viability in test [2] (first compound 0.6325 µM) is 1.06; in test [2] (first compound 2 µM), 0.81; with Staurosporine + OSI-027 (first compound 0.005 µM) it was 0.448; in the test with Staurosporine + OSI-027 (first compound 0.01581 µM), 0.115; in the test with Staurosporine + OSI-027 (first compound 0.05 µM), 0.193; in the test with Staurosporine + OSI-027 (first compound 0.1581 µM), 0.0877. The relative viability in the test with Staurosporine + OSI-027 (first compound 0.5 µM) worked out at 0.111; in test [3] (first compound 0.02 µM) it was 0.485; in test [3] (first compound 0.2 µM), 0.522; in test [3] (first compound 0.6325 µM) it was 0.498; in test [3] (first compound 2 µM) it was 0.383.
Take NCI-H1944: the relative viability in test [1] (first compound 0.02 µM) is 0.4; in test [1] (first compound 0.2 µM) it was 0.357; in test [1] (first compound 0.6325 µM), 0.295; in test [1] (first compound 2 µM), 0.243; in test [2] (first compound 0.02 µM) it was 0.834; in test [2] (first compound 0.2 µM) it was 0.702. Also, the relative viability in test [2] (first compound 0.6325 µM) was 0.314; in test [2] (first compound 2 µM), 0.184; with Staurosporine + OSI-027 (first compound 0.005 µM), 0.322; with Staurosporine + OSI-027 (first compound 0.01581 µM) it was 0.153; in the test with Staurosporine + OSI-027 (first compound 0.05 µM) it was 0.257; in the test with Staurosporine + OSI-027 (first compound 0.1581 µM) it was 0.166. Moreover, the relative viability with Staurosporine + OSI-027 (first compound 0.5 µM) was determined as 0.119; in test [3] (first compound 0.02 µM), 0.306; in test [3] (first compound 0.2 µM), 0.319; in test [3] (first compound 0.6325 µM) it was 0.252; in test [3] (first compound 2 µM) it was 0.214.
